Molecules are shown by their SMILES. “Also recorded” adds a separate entry of the source. Starred links: 1 amine or outer side, 2 acyl side, 3 side chain; linkers in the order of their positions; H or OH if unused. Positions of bridges follow the written chain, without caps; N, C: chain ends. Non-standard residues stand in square brackets, D forms with d. Residues, ends and D or L forms follow the SMILES beside them. *: point of attachment. dProlinol(O-CH2CO) = O=C(COC[C@H]1CCCN1[*:1])[*:2]; N(2-Aminoethyl)Gly = O=C(CN(CCN[*:3])[*:1])[*:2]; X1 = N[C@@H](CS)C(=O)NCCCS(=O)(=O)*; Nle = CCCC[C@H](N)C(=O)O

In this assay the test system is U266 myeloma cell line. Put plainly: Cell death in U266 myeloma cell line (Dapi dead / Fluo-4 live staining, imaging). Format: cell-based. Particulars: Dapi for dead cells, Fluo-4 for live cells, imaged at 6 hours, n=3, compared with Compound A (FIG. 1). The protocol: Compound 2 was tested alongside Compound A and cell death was measured in a U266 myeloma cell line. Dapi staining was used for detection of dead cells and Fluo-4 was used for staining live cells. Cells were then imaged at 6 hours using a Cytation 5 Biotek imaging plate reader.

`CCCC[C@@H]1NC(=O)CN(S(=O)(=O)CCCNC(=O)[C@@H](N)CS)CCNC(=O)[C@H](CCCCN)NC(=O)[C@H](CC(C)C)NC(=O)[C@H](CCCCN)NC(=O)[C@H](CC(C)C)NC(=O)[C@H](CCCCN)NC(=O)COC[C@H]2CCCN2C(=O)[C@H](Cc2c[nH]c3ccccc23)NC(=O)[C@H](C)NC(=O)[C@H](C(C)C)NC(=O)[C@H](C(C)C)NC1=O` [Compound 2] (X1-[N(2-Aminoethyl)Gly][Nle]VVAW[dProlinol(O-CH2CO)]KLKLK; lactam 1-C): the “potency (cell death)” value was “increased potency relative to Compound A; also recorded: more potency compared to Compound A”.

The values are drawn from patent US12060438B2, “Cyclic peptide compounds and methods of use thereof” (MODULATION THERAPEUTICS, INC., priority 2018, dated 2024).
